Reference: patent US7407979B2, “Bioregulatory active ingredient combination” (BASF Aktiengesellschaft, priority 2001, dated 2008)

Tests used:
[1] = system: Winter oilseed rape (cv. Pronto); assay: Shoot elongation in winter oilseed rape (Example 1); assay type: in vivo; settings: treated Oct. 19, 2000; for Stage A1: Reduction / Stage A1: rel. length: rating A1 Oct. 26, 2000; for Stage A2: Reduction / Stage A2: rel. length: rating A2 Nov. 16, 2000
Method: The tank mixes employed in Example 1 are prepared by stirring an emulsion concentrate comprising 90 g/l metconazole, of the formula (II), and an aqueous concentrate comprising 600 g/l mepiquat chloride (MQC) using a magnetic stirrer.
Winter oilseed rape (cv. Pronto) was sown in autumn (Sep. 13, 2000) and treated approximately one month later (Oct. 19, 2000) in accordance with the information given in Table 1. A few weeks later, the shoot elongation and the root development were assessed (A1 on Oct. 26, 2000 and A2 on Nov. 16, 2000).

[2] = system: Winter oilseed rape (cv. Pronto); assay: Root growth and morphological parameters in winter oilseed rape (Example 2); assay type: in vivo; settings: based on untreated control; for SPAD: green coloration
Method: The formulations employed in Example 2 are prepared by introducing an emulsion concentrate comprising 60 g/l metconazole, of the formula (II), and/or an aqueous concentrate comprising 460 g/l mepiquat chloride in suitable amounts. The combination of mepiquat chloride and metconazole is employed in the form of an aqueous SL readymix comprising 21 g/l metconazole, 300 g/l mepiquat chloride and 610 g/l further formulation auxiliaries.
Winter oilseed rape (cv. Pronto) was sown in autumn (Sep. 13, 2000) and treated approximately one month later (Oct. 19, 2000) in accordance with the information given in Table 2. Some of the plants were harvested in autumn on Dec. 07, 2000, while others were harvested in spring on Apr. 03, 2001 and the following morphological parameters were analyzed: plant length; shoot fresh and dry weight (drying: 24 h at 105° C.); total area of all leaves; SPAP (relative units of green coloration determined using a Minolta chlorophyll-measuring meter SPAP 502); root fresh and dry weight (drying: 24 h at 105° C.); storage root fresh weight; length, surface area and volume of the hair roots, and number of root tips (scanning and WinRhizo determination). The results, each of which is based on the untreated control, are compiled in Table 2, the values for the plants harvested in autumn being shown first and the values for the plants harvested in spring being shown second.

[3] = 28 g/ha, autumn harvest Dec. 07, 2000
[4] = 28 g/ha, spring harvest Apr. 03, 2001
[5] = 84 g/ha, autumn harvest Dec. 07, 2000
[6] = 84 g/ha, spring harvest Apr. 03, 2001
[7] = 400 g/ha, autumn harvest Dec. 07, 2000
[8] = 400 g/ha, spring harvest Apr. 03, 2001

`CC1(C)CCC(Cc2ccc(Cl)cc2)C1(O)Cn1cncn1` (centres unmarked) [Metconazole, metconazole] was tested, and the “Stage A1: Reduction” value ([1]; 21 g/ha) was 19%, the “Stage A1: rel. length” value ([1]; 21 g/ha) was 81 and the “Stage A2: Reduction” value ([1]; 21 g/ha) was 39%. The “Stage A2: rel. length” value ([1]; 21 g/ha) was 61, the “Hair root surface area” value [2, 3] was 116% and the Hair root volume [2, 3] was 125%. For the same compound, the Leaf surface area [2, 3] was 84%, the “Number of root tips” value [2, 3] was 93% and the Plant height [2, 3] was 61%. The Root hair length [2, 3] was 107%, the Shoot dry weight [2, 3] was 85% and the Shoot fresh weight [2, 3] was 82%. The “Storage root fresh weight” value [2, 3] was 94%, the “Total root dry weight” value [2, 3] was 94% and the “Total root fresh weight” value [2, 3] was 92%. For the same compound, the SPAD [2, 3] was 107, the “Hair root surface area” value [2, 4] was 134% and the Hair root volume [2, 4] was 145%. For the same compound, the Leaf surface area [2, 4] was 106%, the “Number of root tips” value [2, 4] was 112% and the Plant height [2, 4] was 91%. For the same compound, the Root hair length [2, 4] was 126%, the Shoot dry weight [2, 4] was 112% and the Shoot fresh weight [2, 4] was 122%. The “Storage root fresh weight” value [2, 4] was 115%, the “Total root dry weight” value [2, 4] was 128% and the “Total root fresh weight” value [2, 4] was 115%. For the same compound, the SPAD [2, 4] was 103, the “Hair root surface area” value [2, 5] was 97% and the Hair root volume [2, 5] was 101%. The Leaf surface area [2, 5] was 61%, the “Number of root tips” value [2, 5] was 87% and the Plant height [2, 5] was 46%. It also gave a Root hair length [2, 5] of 94%, a Shoot dry weight [2, 5] of 67% and a Shoot fresh weight [2, 5] of 57%. For the same compound, the “Storage root fresh weight” value [2, 5] was 74%, the “Total root dry weight” value [2, 5] was 75% and the “Total root fresh weight” value [2, 5] was 78%. For the same compound, the SPAD [2, 5] was 116, the “Hair root surface area” value [2, 6] was 148% and the Hair root volume [2, 6] was 183%. For the same compound, the Leaf surface area [2, 6] was 127%, the “Number of root tips” value [2, 6] was 116% and the Plant height [2, 6] was 86%. The Root hair length [2, 6] was 129%, the Shoot dry weight [2, 6] was 136% and the Shoot fresh weight [2, 6] was 150%. The “Storage root fresh weight” value [2, 6] was 138%, the “Total root dry weight” value [2, 6] was 161% and the “Total root fresh weight” value [2, 6] was 150%. It also gave an SPAD [2, 6] of 104.
For `C[N+]1(C)CCCCC1.[Cl-]` [MQC, N,N-dimethylpiperidinium chloride], the “Stage A1: Reduction” value ([1]; 400 g/ha) was 0%, the “Stage A1: rel. length” value ([1]; 400 g/ha) was 100 and the “Stage A2: Reduction” value ([1]; 400 g/ha) was 4%. The “Stage A2: rel. length” value ([1]; 400 g/ha) was 96, the “Hair root surface area” value [2, 7] was 131% and the Hair root volume [2, 7] was 154%. For the same compound, the Leaf surface area [2, 7] was 116%, the “Number of root tips” value [2, 7] was 94% and the Plant height [2, 7] was 96%. For the same compound, the Root hair length [2, 7] was 112%, the Shoot dry weight [2, 7] was 112% and the Shoot fresh weight [2, 7] was 111%. The “Storage root fresh weight” value [2, 7] was 118%, the “Total root dry weight” value [2, 7] was 120% and the “Total root fresh weight” value [2, 7] was 123%. The SPAD [2, 7] was 102; 102, the “Hair root surface area” value [2, 8] was 136% and the Hair root volume [2, 8] was 157%. The Leaf surface area [2, 8] was 103%, the “Number of root tips” value [2, 8] was 123% and the Plant height [2, 8] was 93%. For the same compound, the Root hair length [2, 8] was 123%, the Shoot dry weight [2, 8] was 99% and the Shoot fresh weight [2, 8] was 114%. For the same compound, the “Storage root fresh weight” value [2, 8] was 94%, the “Total root dry weight” value [2, 8] was 107% and the “Total root fresh weight” value [2, 8] was 112%. The SPAD [2, 8] was 102; 102.
